Assay results: patent US11242337B2, “Compounds useful for treating gastrointestinal tract disorders” (Ardelyx, Inc., priority 2017, dated 2022)

Assays:
NHE3 [1] = biological target: T1, NHE3 (Homo sapiens, UniProt P48764); assay: Cell-based assay of NHE-3 activity (pre-incubation inhibition), human; conditions: human Preincubation
T1 construct: expressed in transfected cells
T1 sequence (P48764 26-834): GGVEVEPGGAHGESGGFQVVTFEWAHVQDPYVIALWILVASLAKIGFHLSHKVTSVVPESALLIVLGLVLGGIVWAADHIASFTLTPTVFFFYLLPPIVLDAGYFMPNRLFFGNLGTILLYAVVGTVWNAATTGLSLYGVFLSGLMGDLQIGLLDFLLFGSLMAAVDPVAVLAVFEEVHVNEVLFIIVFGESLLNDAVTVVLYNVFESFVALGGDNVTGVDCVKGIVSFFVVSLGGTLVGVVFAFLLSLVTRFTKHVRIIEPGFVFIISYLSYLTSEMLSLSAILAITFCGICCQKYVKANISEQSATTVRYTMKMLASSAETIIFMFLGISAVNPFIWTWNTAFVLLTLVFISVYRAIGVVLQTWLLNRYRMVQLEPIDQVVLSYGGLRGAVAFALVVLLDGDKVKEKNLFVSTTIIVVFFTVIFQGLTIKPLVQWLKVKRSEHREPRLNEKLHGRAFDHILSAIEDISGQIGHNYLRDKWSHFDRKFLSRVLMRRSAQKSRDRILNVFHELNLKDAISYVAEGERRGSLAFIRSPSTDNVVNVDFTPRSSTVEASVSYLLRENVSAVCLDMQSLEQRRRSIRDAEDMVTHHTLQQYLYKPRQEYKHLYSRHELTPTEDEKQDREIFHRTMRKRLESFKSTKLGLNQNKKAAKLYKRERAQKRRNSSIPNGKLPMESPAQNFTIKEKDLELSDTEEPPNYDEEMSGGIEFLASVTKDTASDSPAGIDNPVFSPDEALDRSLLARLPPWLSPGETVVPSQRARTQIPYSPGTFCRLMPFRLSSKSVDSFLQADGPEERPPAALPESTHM
T1 sequence (Q99653 2-195 partner limits assumed): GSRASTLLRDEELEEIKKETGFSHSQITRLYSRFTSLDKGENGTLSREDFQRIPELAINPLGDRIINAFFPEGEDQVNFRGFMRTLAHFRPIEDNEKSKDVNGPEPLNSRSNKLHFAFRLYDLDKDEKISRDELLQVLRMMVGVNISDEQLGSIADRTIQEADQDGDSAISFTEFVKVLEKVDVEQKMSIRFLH
In short: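 Activity read as initial rate of BCECF fluorescence ratio change per minute (ex 439/505, em 538 nm) following NH4Cl prepulse acid loading. Compound (0–30 μM) present during 10 min Na+-free acidification at room temperature; cells were PS120 fibroblasts stably co-expressing human NHE3 and NHERF2.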

NHE3 [2] = biological target: T1, NHE3; assay: Cell-based assay of NHE-3 activity (persistent inhibition), human; conditions: human Persistence, 60 min incubation then washout
In short: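 Persistent inhibition: compound (0-30 μM, 60 min, RT, NaCl-HEPES pH 7.4) removed before assay. Human NHE3/NHERF2 PS120 cells were then BCECF-loaded during NH4Cl pulse (30 min, 37 °C), acidified in Na+-free buffer, and Na+ added 10 min after washout; antiport measured as initial fluorescence-ratio change per minute.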

% inhibition (NHE3 [1]) | % inhibition (NHE3 [2]) | pIC50 (NHE3 [1]; 0-30 μM test compound) | pIC50 (NHE3 [2]) | IC50 (NHE3 [2]) | IC50 (NHE3 [1]; 0-30 μM test compound) | Compound
C (>70%) | C (>70%) | – | – | – | – | N[C@@H]1CCCN([C@H]2Cc3c(Cl)cc(Cl)cc3[C@@H]2Oc2c(F)cc(S(=O)(=O)NCCOCCOCCNC(=O)NCCCCNC(=O)NCCOCCOCCNS(=O)(=O)c3cc(F)c(O[C@H]4c5cc(Cl)cc(Cl)c5C[C@@H]4N4CCC[C@@H](N)C4)c(F)c3)cc2F)C1 [Example 85, 3-[2-(2-[2-[(4-[[(1S,2S)-2-[(3R)-3-Aminopiperidin-1-yl]-4,6-dichloro-2,3-dihydro-1H-1-inden-1-yl]oxy]-3,5-difluorobenzene)sulfonamido]ethoxy]ethoxy)ethyl]-1-[4-([[2-(2-[2-[(4-[[(1S,2S)-2-[(3R)-3-aminopiperidin-1-yl]-4,6-dichloro-2,3-dihydro-1H-inden-1-yl]oxy]-3,5-difluorobenzene)sulfonamido]ethoxy]ethoxy)ethyl]carbamoyl]amino)butyl]urea; bis(trifluoroacetic acid)]
C (>70%) | C (>70%) | C (NHE3 pIC50 > 7) | C (NHE3 pIC50 > 7) | – | – | CN(C)[C@H]1Cc2c(Cl)cc(Cl)cc2[C@@H]1Oc1c(F)cc(S(=O)(=O)NCCOCCOCCNC(=O)NCCCCNC(=O)NCCOCCOCCNS(=O)(=O)c2cc(F)c(O[C@H]3c4cc(Cl)cc(Cl)c4C[C@@H]3N(C)C)c(F)c2)cc1F [Example 86]
C (>70%) | C (>70%) | – | – | – | – | Cc1cc(O[C@H]2c3cc(Cl)cc(Cl)c3C[C@@H]2N2CCC[C@@H](N)C2)c(F)cc1S(=O)(=O)NCCOCCOCCNC(=O)NCCCCNC(=O)NCCOCCOCCNS(=O)(=O)c1cc(F)c(O[C@H]2c3cc(Cl)cc(Cl)c3C[C@@H]2N2CCC[C@@H](N)C2)cc1C [Example 87, 3-[2-(2-[2-[(4-[[(1S,2S)-2-[(3R)-3-Aminopiperidin-1-yl]-4,6-dichloro-2,3-dihydro-1H-inden-1-yl]oxy]-5-fluoro-2-methylbenzene)sulfonamido]ethoxy]ethoxy)ethyl]-1-[4-([[2-(2-[2-[(4-[[(1S,2S)-2-[(3R)-3-aminopiperidin-1-yl]-4,6-dichloro-2,3-dihydro-1H-inden-1-yl]oxy]-5-fluoro-2-methylbenzene)sulfonamido]ethoxy]ethoxy)ethyl]carbamoyl]amino)butyl]urea; bis(trifluoroacetic acid)]
C (>70%) | C (>70%) | – | – | – | – | Cc1cc(S(=O)(=O)NCCOCCOCCNC(=O)NCCCCNC(=O)NCCOCCOCCNS(=O)(=O)c2cc(C)c(O[C@H]3c4cc(Cl)cc(Cl)c4C[C@@H]3N3CCC[C@@H](N)C3)cc2F)c(F)cc1O[C@H]1c2cc(Cl)cc(Cl)c2C[C@@H]1N1CCC[C@@H](N)C1 [Example 89, 3-[2-(2-[2-[(4-[[(1S,2S)-2-[(3R)-3-Aminopiperidin-1-yl]-4,6-dichloro-2,3-dihydro-1H-inden-1-yl]oxy]-2-fluoro-5-methylbenzene)sulfonamido]ethoxy]ethoxy)ethyl]-1-[4-([[2-(2-[2-[(4-[[(1S,2S)-2-[(3R)-3-aminopiperidin-1-yl]-4,6-dichloro-2,3-dihydro-1H-inden-1-yl]oxy]-2-fluoro-5-methylbenzene)sulfonamido]ethoxy]ethoxy)ethyl]carbamoyl]amino)butyl]urea; bis(trifluoroacetic acid)]
C (>70%) | C (>70%) | C (NHE3 pIC50 > 7) | – | 100 to 1000 nM | – | Cc1cc(S(=O)(=O)NCCOCCOCCNC(=O)NCCCCNC(=O)NCCOCCOCCNS(=O)(=O)c2cc(C)c(O[C@H]3c4cc(Cl)cc(Cl)c4C[C@@H]3N(C)C)cc2F)c(F)cc1O[C@H]1c2cc(Cl)cc(Cl)c2C[C@@H]1N(C)C [Example 90, 3-[2-(2-[2-[(4-[[(1S,2S)-4,6-Dichloro-2-(dimethylamino)-2,3-dihydro-1H-inden-1-yl]oxy]-2-fluoro-5-methylbenzene)sulfonamido]ethoxy]ethoxy)ethyl]-1-[4-([[2-(2-[2-[(4-[[(1S,2S)-4,6-dichloro-2-(dimethylamino)-2,3-dihydro-1H-inden-1-yl]oxy]-2-fluoro-5-methylbenzene)sulfonamido]ethoxy]ethoxy)ethyl]carbamoyl]amino)butyl]urea; bis(trifluoroacetic acid)]
C (>70%) | C (>70%) | C (NHE3 pIC50 > 7) | C (NHE3 pIC50 > 7) | – | – | Cc1cc(S(=O)(=O)N[C@H]2CCN(CCOCCNC(=O)NCCCCNC(=O)NCCOCCN3CC[C@H](NS(=O)(=O)c4ccc(O[C@H]5c6cc(Cl)cc(C#N)c6C[C@@H]5N(C)C)c(C)c4)C3=O)C2=O)ccc1O[C@H]1c2cc(Cl)cc(C#N)c2C[C@@H]1N(C)C [Example 92, 1-(2-[2-[(3S)-3-[(4-[[(1S,2S)-6-Chloro-4-cyano-2-(dimethylamino)-2,3-dihydro-1H-inden-1-yl]oxy]-3-methylbenzene)sulfonamido]-2-oxopyrrolidin-1-yl]ethoxy]ethyl)-3-(4-[[(2-[2-[(3S)-3-[(4-[[(1S,2S)-6-chloro-4-cyano-2-(dimethylamino)-2,3-dihydro-1H-inden-1-yl]oxy]-3-methylbenzene)sulfonamido]-2-oxopyrrolidin-1-yl]ethoxy]ethyl)carbamoyl]amino]butyl)urea; bis(trifluoroacetic acid)]
C (>70%) | C (>70%) | – | – | < 100 nM | < 100 nM | N[C@@H]1CCCN([C@H]2Cc3c(Cl)cc(Cl)cc3[C@@H]2Oc2ccc(S(=O)(=O)N3CC[C@@H](OCCOCCNC(=O)NCCCCNC(=O)NCCOCCO[C@@H]4CCN(S(=O)(=O)c5ccc(O[C@H]6c7cc(Cl)cc(Cl)c7C[C@@H]6N6CCC[C@@H](N)C6)cc5)C4)C3)cc2)C1 [Example 93, 3-[2-(2-[[(3R)-1-[(4-[[(1S,2S)-2-[(3R)-3-Aminopiperidin-1-yl]-4,6-dichloro-2,3-dihydro-1H-inden-1-yl]oxy]benzene)sulfonyl]pyrrolidin-3-yl]oxy]ethoxy)ethyl]-1-[4-([[2-(2-[[(3R)-1-[(4-[[(1S,2S)-2-[(3R)-3-aminopiperidin-1-yl]-4,6-dichloro-2,3-dihydro-1H-inden-1-yl]oxy]benzene)sulfonyl]pyrrolidin-3-yl]oxy]ethoxy)ethyl]carbamoyl]amino)butyl]urea]
C (>70%) | C (>70%) | C (NHE3 pIC50 > 7) | C (NHE3 pIC50 > 7) | – | – | N[C@@H]1CCCN([C@H]2Cc3c(Cl)cc(Cl)cc3[C@@H]2Oc2ccc(S(=O)(=O)N3CC[C@H](OCCOCCNC(=O)NCCCCNC(=O)NCCOCCO[C@H]4CCN(S(=O)(=O)c5ccc(O[C@H]6c7cc(Cl)cc(Cl)c7C[C@@H]6N6CCC[C@@H](N)C6)cc5)C4)C3)cc2)C1 [Example 94, 3-[2-(2-[[(3S)-1-[(4-[[(1S,2S)-2-[(3R)-3-Aminopiperidin-1-yl]-4,6-dichloro-2,3-dihydro-1H-inden-1-yl]oxy]benzene)sulfonyl]pyrrolidin-3-yl]oxy]ethoxy)ethyl]-1-[4-([[2-(2-[[(3S)-1-[(4-[[(1S,2S)-2-[(3R)-3-aminopiperidin-1-yl]-4,6-dichloro-2,3-dihydro-1H-inden-1-yl]oxy]benzene)sulfonyl]pyrrolidin-3-yl]oxy]ethoxy)ethyl]carbamoyl]amino)butyl]urea]
C (>70%) | C (>70%) | C (NHE3 pIC50 > 7) | C (NHE3 pIC50 > 7) | – | – | N[C@@H]1CCCN([C@H]2Cc3c(Cl)cc(Cl)cc3[C@@H]2Oc2ccc(S(=O)(=O)N3CCC(OCCOCCNC(=O)NCCCCNC(=O)NCCOCCOC4CCN(S(=O)(=O)c5ccc(O[C@H]6c7cc(Cl)cc(Cl)c7C[C@@H]6N6CCC[C@@H](N)C6)cc5)CC4)CC3)cc2)C1 [Example 95, 3-[2-[2-([1-[(4-[[(1S,2S)-2-[(3R)-3-Aminopiperidin-1-yl]-4,6-dichloro-2,3-dihydro-1H-inden-1-yl]oxy]benzene)sulfonyl]piperidin-4-yl]oxy)ethoxy]ethyl]-1-[4-[([2-[2-([1-[(4-[[(1S,2S)-2-[(3R)-3-aminopiperidin-1-yl]-4,6-dichloro-2,3-dihydro-1H-inden-1-yl]oxy]benzene)sulfonyl]piperidin-4-yl]oxy)ethoxy]ethyl]carbamoyl)amino]butyl]urea]
